The target of the experiment is hFXR (Homo sapiens (Human), UniProt Q96RI1). Put plainly: In Vitro FXR Assay (TK). In kind it is cell-based. The settings on record: CV-1 cells transfected with hFXR, hRXR, TK-ECRE-luc and pCMX-YFP; incubated 18 hrs; luminescence; maximum efficacy <25% of the Fexarmine control classified as '+'. On the procedure: Example B-1: In Vitro FXR Assay (TK)
CV-1 cells were seeded at a density of 2,000,000 cells in a T175 flask with DMEM+10% charcoal double-stripped FBS and incubated at 37° C. in 5% CO2 for 18 h (O/N).
After 18 h of incubation, the medium in the T175 flask was changed with fresh DMEM+10% charcoal super-stripped serum. In a polypropylene tube, 2500 μL OptiMEM (Life Technologies, Cat #31985-062) was combined with expression plasmids for hFXR, hRXR, TK-ECRE-luc and pCMX-YFP. The tube was then briefly vortexed and incubated at room temperature for 5 minutes. Transfection reagent (X-tremeGENE HP from Roche, Cat #06 366 236 001) was added to the OptiMEM/plasmid mixture vortexed and incubated at room temperature for 20 minutes. Following incubation, the transfection reagent/DNA mixture complex was added to cells in the T175 flask and the cells were incubated at 37° C. in 5% CO2 for 18 h (O/N).
Compounds were serially diluted in DMSO and added to transfected CV-1 cells. The cells were then incubated for 18 hrs. The next day cells were lysed and examined for luminescence.

hFXR, sequence (Q96RI1 whole entry): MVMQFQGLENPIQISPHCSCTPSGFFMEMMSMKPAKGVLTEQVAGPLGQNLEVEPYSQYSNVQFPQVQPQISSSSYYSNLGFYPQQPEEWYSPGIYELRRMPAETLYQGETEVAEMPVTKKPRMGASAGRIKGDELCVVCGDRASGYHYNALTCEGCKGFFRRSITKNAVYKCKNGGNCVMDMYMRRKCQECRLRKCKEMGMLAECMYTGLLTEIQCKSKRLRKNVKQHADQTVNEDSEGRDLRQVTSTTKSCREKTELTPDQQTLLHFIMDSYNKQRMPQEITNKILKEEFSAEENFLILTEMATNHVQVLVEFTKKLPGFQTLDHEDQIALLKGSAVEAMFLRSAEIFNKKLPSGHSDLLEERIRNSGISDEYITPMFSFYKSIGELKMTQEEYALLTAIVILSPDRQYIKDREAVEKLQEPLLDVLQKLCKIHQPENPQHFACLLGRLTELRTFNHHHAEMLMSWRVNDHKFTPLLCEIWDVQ
hFXR, sequence (P19793 whole entry partner): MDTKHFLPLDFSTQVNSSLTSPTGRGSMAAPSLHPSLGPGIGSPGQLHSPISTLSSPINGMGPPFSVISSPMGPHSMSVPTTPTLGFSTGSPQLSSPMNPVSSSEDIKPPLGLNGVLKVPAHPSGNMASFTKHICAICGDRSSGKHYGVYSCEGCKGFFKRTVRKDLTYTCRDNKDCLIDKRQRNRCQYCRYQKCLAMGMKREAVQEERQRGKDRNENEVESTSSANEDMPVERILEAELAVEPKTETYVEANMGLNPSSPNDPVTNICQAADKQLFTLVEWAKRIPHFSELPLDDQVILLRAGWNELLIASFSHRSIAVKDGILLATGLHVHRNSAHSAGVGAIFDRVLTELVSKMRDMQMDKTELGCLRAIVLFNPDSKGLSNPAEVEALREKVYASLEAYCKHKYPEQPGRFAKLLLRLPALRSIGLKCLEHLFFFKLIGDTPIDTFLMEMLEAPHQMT

`COc1ccc([C@H]2CC[C@H](CN(c3cccc(-n4cc(C)cn4)c3)C(=O)[C@H]3CC[C@H](O)CC3)CC2)cc1C` [Compound 1, trans-4-Hydroxy-N-((trans-4-(4-methoxy-3-methylphenyl)cyclohexyl)methyl)-N-(3-(4-methyl-1H-pyrazol-1-yl)phenyl)cyclohexanecarboxamide] showed an EC50 of 250 to 1000 nM.

Compound `CCn1cc(-c2cccc(N(C[C@H]3CC[C@H](c4ccc(OC)c(C#N)c4)CC3)C(=O)[C@H]3CC[C@H](O)CC3)c2)cn1` [Compound 2, trans-N-((trans-4-(3-Cyano-4-methoxyphenyl)cyclohexyl)methyl)-N-(3-(1-ethyl-1H-pyrazol-4-yl)phenyl)-4-hydroxycyclohexanecarboxamide] registered an EC50 not above 250 nM.

For `COc1ccc([C@H]2CC[C@H](CN(c3cccc(-c4cnn(C)c4)c3)C(=O)[C@H]3CC[C@H](O)CC3)CC2)cc1C` [Compound 2.01, trans-4-Hydroxy-N-((trans-4-(4-methoxy-3-methylphenyl)cyclohexyl)methyl)-N-(3-(1-methyl-1H-pyrazol-4-yl)phenyl)cyclohexanecarboxamide], the EC50 is not above 250 nM.

In turn, `CCn1cc(-c2cccc(N(C[C@H]3CC[C@H](c4ccc(OC)c(C)c4)CC3)C(=O)[C@H]3CC[C@H](O)CC3)c2)cn1` [Compound 2.02, trans-N-(3-(1-Ethyl-1H-pyrazol-4-yl)phenyl)-4-hydroxy-N-((trans-4-(4-methoxy-3-methylphenyl)cyclohexyl)methyl)cyclohexanecarboxamide] yielded an EC50 not above 250 nM.

Compound `COc1ccc([C@H]2CC[C@H](CN(c3cccc(-c4cnn(C(C)C)c4)c3)C(=O)[C@H]3CC[C@H](O)CC3)CC2)cc1C#N` [Compound 2.03, trans-N-((trans-4-(3-Cyano-4-methoxyphenyl)cyclohexyl)methyl)-4-hydroxy-N-(3-(1-isopropyl-1H-pyrazol-4-yl)phenyl)cyclohexanecarboxamide] came in with an EC50 not above 250 nM.

`COc1ccc([C@H]2CC[C@H](CN(c3cccc(-c4cnn(C5CC5)c4)c3)C(=O)[C@H]3CC[C@H](O)CC3)CC2)cc1C#N` [Compound 2.04, trans-N-((trans-4-(3-Cyano-4-methoxyphenyl)cyclohexyl)methyl)-N-(3-(1-cyclopropyl-1H-pyrazol-4-yl)phenyl)-4-hydroxycyclohexanecarboxamide] came in with an EC50 not above 250 nM.

Consider `COc1ccc([C@H]2CC[C@H](CN(c3cccc(-c4cnn(CC(F)F)c4)c3)C(=O)[C@H]3CC[C@H](O)CC3)CC2)cc1C` [Compound 2.05, trans-N-(3-(1-(2,2-Difluoroethyl)-1H-pyrazol-4-yl)phenyl)-4-hydroxy-N-((trans-4-(4-methoxy-3-methylphenyl)cyclohexyl)methyl)cyclohexanecarboxamide], for which the EC50 is not above 250 nM.

The compound `COc1ccc([C@H]2CC[C@H](CN(c3cccc(-c4cnn(C(F)(F)F)c4)c3)C(=O)[C@H]3CC[C@H](O)CC3)CC2)cc1C` [Compound 2.06, trans-4-Hydroxy-N-((trans-4-(4-methoxy-3-methylphenyl)cyclohexyl)methyl)-N-(3-(1-(trifluoromethyl)-1H-pyrazol-4-yl)phenyl)cyclohexanecarboxamide] came in with an EC50 not above 250 nM.

Compound `COc1ccc([C@H]2CC[C@H](CN(c3cc(-c4cnn(C5CC5)c4)ccn3)C(=O)[C@H]3CC[C@H](O)CC3)CC2)cc1C` [Compound 2.07, trans-N-(4-(1-Cyclopropyl-1H-pyrazol-4-yl)pyridin-2-yl)-4-hydroxy-N-((trans-4-(4-methoxy-3-methylphenyl)cyclohexyl)methyl)cyclohexanecarboxamide] yielded an EC50 not above 250 nM.

`COc1ccc(C23CCC(CN(c4cc(-c5cnn(C6CC6)c5)ccn4)C(=O)[C@H]4CC[C@H](O)CC4)(CC2)CC3)cc1C` [Compound 2.08, trans-N-(4-(1-Cyclopropyl-1H-pyrazol-4-yl)pyridin-2-yl)-4-hydroxy-N-((4-(4-methoxy-3-methylphenyl)bicyclo[2.2.2]octan-1-yl)methyl)cyclohexanecarboxamide] had an EC50 not above 250 nM.

For the compound `COc1ccc(C23CCC(CN(c4cc(-c5cnn(C(C)C)c5)ccn4)C(=O)[C@H]4CC[C@H](O)CC4)(CC2)CC3)cc1C` [Compound 2.09], the concentration giving a half-maximal response (EC50) is not above 250 nM.

As to `COc1ccc([C@H]2CC[C@H](CN(c3cccc(-c4cnn(C5CC5)c4)c3)C(=O)[C@H]3CC[C@H](O)CC3)CC2)cc1C` [Compound 3, trans-N-(3-(1-Cyclopropyl-1H-pyrazol-4-yl)phenyl)-4-hydroxy-N-((trans-4-(4-methoxy-3-methylphenyl)cyclohexyl)methyl)cyclohexanecarboxamide], the EC50 was not above 250 nM.

In the case of `COc1ccc([C@H]2CC[C@H](CN(c3cccc(-c4ccn(C)n4)c3)C(=O)[C@H]3CC[C@H](O)CC3)CC2)cc1C` [Compound 3.01, trans-4-Hydroxy-N-((trans-4-(4-methoxy-3-methylphenyl)cyclohexyl)methyl)-N-(3-(1-methyl-1H-pyrazol-3-yl)phenyl)cyclohexanecarboxamide], the EC50 was not below 1000 nM.

As to `COc1ccc([C@H]2CC[C@H](CN(c3cccc(-c4cnn(C(C)C)c4)c3)C(=O)[C@H]3CC[C@H](O)CC3)CC2)cc1C` [Compound 3.02, trans-4-Hydroxy-N-(3-(1-isopropyl-1H-pyrazol-4-yl)phenyl)-N-((trans-4-(4-methoxy-3-methylphenyl)cyclohexyl)methyl)cyclohexanecarboxamide], the EC50 was not above 250 nM.

`COc1ccc([C@H]2CC[C@H](CN(c3cccc(-c4cnn(CC(C)C)c4)c3)C(=O)[C@H]3CC[C@H](O)CC3)CC2)cc1C` [Compound 3.03, trans-4-Hydroxy-N-(3-(1-isobutyl-1H-pyrazol-4-yl)phenyl)-N-((trans-4-(4-methoxy-3-methylphenyl)cyclohexyl)methyl)cyclohexanecarboxamide]: the EC50 was not above 250 nM.

Compound `CCCn1cc(-c2cccc(N(C[C@H]3CC[C@H](c4ccc(OC)c(C)c4)CC3)C(=O)[C@H]3CC[C@H](O)CC3)c2)cn1` [Compound 3.04, trans-4-Hydroxy-N-((trans-4-(4-methoxy-3-methylphenyl)cyclohexyl)methyl)-N-(3-(1-propyl-1H-pyrazol-4-yl)phenyl)cyclohexanecarboxamide] displayed an EC50 not above 250 nM.

On to `COc1ccc([C@H]2CC[C@H](CN(c3cccc(-c4cnn(CCO)c4)c3)C(=O)[C@H]3CC[C@H](O)CC3)CC2)cc1C` [Compound 3.05, trans-4-Hydroxy-N-(3-(1-(2-hydroxyethyl)-1H-pyrazol-4-yl)phenyl)-N-((trans-4-(4-methoxy-3-methylphenyl)cyclohexyl)methyl)cyclohexanecarboxamide], for which the EC50 is not below 1000 nM.

In turn, `COc1ccc([C@H]2CC[C@H](CN(c3cccc(-c4cnn(CCN(C)C)c4)c3)C(=O)[C@H]3CC[C@H](O)CC3)CC2)cc1C` [Compound 3.06, trans-N-(3-(1-(2-(Dimethylamino)ethyl)-1H-pyrazol-4-yl)phenyl)-4-hydroxy-N-((trans-4-(4-methoxy-3-methylphenyl)cyclohexyl)methyl)cyclohexanecarboxamide] yielded an EC50 not below 1000 nM.

As for `COc1ccc([C@H]2CC[C@H](CN(c3cccc(-c4cnn(CC(F)(F)F)c4)c3)C(=O)[C@H]3CC[C@H](O)CC3)CC2)cc1C` [Compound 3.07, trans-4-Hydroxy-N-((trans-4-(4-methoxy-3-methylphenyl)cyclohexyl)methyl)-N-(3-(1-(2,2,2-trifluoroethyl)-1H-pyrazol-4-yl)phenyl)cyclohexanecarboxamide], the EC50 was not above 250 nM.

In turn, `COc1ccc([C@H]2CC[C@H](CN(c3cccc(-c4cnn(C5CCC5)c4)c3)C(=O)[C@H]3CC[C@H](O)CC3)CC2)cc1C` [Compound 3.08, trans-N-(3-(1-Cyclobutyl-1H-pyrazol-4-yl)phenyl)-4-hydroxy-N-((trans-4-(4-methoxy-3-methylphenyl)cyclohexyl)methyl)cyclohexanecarboxamide] displayed an EC50 not above 250 nM.

Take `COc1ccc([C@H]2CC[C@H](CN(c3cccc(-c4cnn(C5COC5)c4)c3)C(=O)[C@H]3CC[C@H](O)CC3)CC2)cc1C` [Compound 3.09, trans-4-Hydroxy-N-((trans-4-(4-methoxy-3-methylphenyl)cyclohexyl)methyl)-N-(3-(1-(oxetan-3-yl)-1H-pyrazol-4-yl)phenyl)cyclohexanecarboxamide]: the EC50 was not above 250 nM.

Compound `COc1ccc([C@H]2CC[C@H](CN(c3cccc(-c4cnn(C5CCOCC5)c4)c3)C(=O)[C@H]3CC[C@H](O)CC3)CC2)cc1C` [Compound 3.10, trans-4-Hydroxy-N-((trans-4-(4-methoxy-3-methylphenyl)cyclohexyl)methyl)-N-(3-(1-(tetrahydro-2H-pyran-4-yl)-1H-pyrazol-4-yl)phenyl)cyclohexanecarboxamide] showed an EC50 not above 250 nM.

The compound `COc1ccc([C@H]2CC[C@H](CN(c3cccc(-c4cnn(C(F)F)c4)c3)C(=O)[C@H]3CC[C@H](O)CC3)CC2)cc1C` [Compound 3.11, trans-N-(3-(1-(Difluoromethyl)-1H-pyrazol-4-yl)phenyl)-4-hydroxy-N-((trans-4-(4-methoxy-3-methylphenyl)cyclohexyl)methyl)cyclohexanecarboxamide] showed an EC50 not above 250 nM.

The compound `COc1ccc([C@H]2CC[C@H](CN(c3cccc(-c4cnn(CCF)c4)c3)C(=O)[C@H]3CC[C@H](O)CC3)CC2)cc1C` [Compound 3.12, trans-N-(3-(1-(2-Fluoroethyl)-1H-pyrazol-4-yl)phenyl)-4-hydroxy-N-((trans-4-(4-methoxy-3-methylphenyl)cyclohexyl)methyl)cyclohexanecarboxamide] came in with a half-maximal effective concentration (EC50) not above 250 nM.

In general, EC50 refers to the concentration giving half of the maximal effect. Higher therefore signals weaker potency.

(Values after patent US10961198B2, “Farnesoid X receptor agonists and uses thereof” (Metacrine, Inc., priority 2017, dated 2021).)
